Each block holds one compound with its values, some of them ahead of it.
Columns and labels:
[1] = system: nociceptive response on hot plate; assay: hot plate test (analgesic activity); type: in vivo; design: concentration or dose not given beside the values; settings: hot plate 58° C.; mice; 120 min after injection
Experimental: Male albino Swiss mice (25 g body weight) were divided into various groups (n=6). Each mouse was initially placed on a hot plate thermostatically maintained at 58° C. […] This time was considered as the control reaction time. A cut-off time of 60 s was used to avoid damage to the paws. To test the analgesic activity of the compounds, each group of mice was treated with one dose of the test compounds. The reaction time was then retested at 0 hour and 120 min after injection (each animal acted as its own control). The percentage changes in the reaction were then calculated.

gastric mucosa = settings: rat, in vivo
Experimental: For acute ulcerogenesis testing, albino rats were divided into different groups consisting of six animals in each group. […] Control rats received p.o. administration of vehicle (suspension of 1% methyl cellulose). Food (but not water) was removed 24 hours before administration of the test compounds. After the drug treatment, the rats were fed a normal diet for 17 hours and then sacrificed. The stomach was removed and opened along the greater curvature, washed with distilled water and cleaned gently by dipping in saline. The mucosal damage was examined by means of a magnifying glass. For each stomach, the mucosal damage was assessed according to the following scoring system: 0.5 redness; 1.0 spot ulcers; 1.5 hemorrhagic streaks; 2.0 ulcers <3 but ≦5; 3.0 ulcers >5. All of the compounds were tested at equimolar oral doses.

[2] = system: carrageenan-induced rat paw edema; assay: carrageenan-induced rat paw edema method (anti-inflammatory activity); type: in vivo; settings: for anti-inflammatory activity (in words): compared with standard drug indomethacin; for anti-inflammatory activity, % inhibition of paw edema: equimolar oral dose, rat
Experimental: For the experimental results described below, healthy male albino rats (200 g-220 g) were used for the study. The animals were kept in standard plastic animal cages in groups of six animals each with 12 hour light and dark cycle at 25±2° C. The rats were fed on standard rat chow and provided water ad libitum. The animals were acclimatized to laboratory conditions for a week prior to experiments. Anti-inflammatory activity of the synthesized compounds S1-S18 was determined by the carrageenan-induced rat paw edema method. The compounds were tested at equimolar oral dose and were compared with the standard drug indomethacin. […]. Three compounds, namely S14, S7 and S3 containing R=2,4,5-trimethoxyphenyl; […].
Anti-inflammatory activity was determined by a carrageenan-induced rat paw edema method. Male rats weighing 200 g were housed in a room with a controlled temperature and 12 hour light/12 hour dark cycle, housed in a specific pathogen free environment, and fed standard rodent chow and given water ad libitum. Each treatment group and vehicle group consisted of six randomly assigned animals. Compounds were administered p.o. suspension. Paw edema was induced by intradermal injection of 50 μL of 1% carrageenan into the sub plantar region of the right hind paw, after one hour of compound administration. […] The control group received only the vehicle. Increase in paw edema was compared with that in the control group and percent inhibition was calculated taking the values in the control group as 0% inhibition.

[3] = LD50 determination by the Karber method; settings: in vivo, mouse, 24 hours observation
Experimental: The LD50 of compound S3 was determined by the Karber method. […] For LD50 determination, an observation was made for each mouse for 24 hours and symptoms of toxicity and rate of mortality in each group were noted. At the end of the study period, expired animals were counted for the calculation of LD50. The following method was used for the determination of LD50: LD50=LD100−Σ×(a×b)/n, where n is the total number of animals in a group, a is the difference between two successive doses of administered extract/substance, b is the average number of dead animals in two successive doses, and LD100 is the lethal dose causing 100% death of all test animals.

COX-2 = assay: Western blot of COX-2 expression in rat gastric mucosa damaged by ethanol; settings: ethanol induced model, S3 25.6 mg/kg, indomethacin 25 mg/kg
Experimental: A Western blot was performed for COX-1. […] For the Western blot analysis, 20 μg of protein was transferred to PVDF membranes, blocked in 5% skim milk in TBS buffer 1% Tween 20, and then incubated overnight with the COX-1, COX-2 and β-actin, followed by HRP-conjugated anti-rat/rabbit/goat antibodies for 2 hours at 25° C. Bands were visualized with the Luminata Western Chemiluminescent HRP Substrates and densitometric analysis of bands were assessed using LI-COR C-DiGit blot scanners.

[4] = system: malondialdehyde (MDA) content; settings: rat, in vivo
Experimental: The mixture was heated at 95° C. for 60 minutes. After cooling, the reactants were supplemented with 5 mL of a mixture of n-butanol:pyridine (15:1 v/v), shaken vigorously for 1 minute and centrifuged for 10 minutes at 4000 rpm. The supernatant organic layer was taken out and absorbance was measured at 532 nm on a UV spectrophotometer. The results were expressed as nmol MDA/100 mg tissue. Data are expressed as mean±S.E.M., and the student's t-test was applied to determine the significance of the difference between the standard group and rats treated with the test compounds. The lipid peroxidation was measured as nanomoles of MDA content/100 mg of liver and kidney tissue.

[5] = system: ethanol-induced gastric ulcer; assay: ethanol induced ulcer model (gastro-protective activity: ulcer index, mucus, PAS staining, histology); type: in vivo, rat; settings: for histology of gastric tissue (in words): S3 25.6 mg/kg, indomethacin 25 mg/kg; for Ulcer index Mean ± SEM: pretreatment orally (S3 25.6 mg/kg, indomethacin 25 mg/kg) 1 hour before ethanol 95% 20 mL/kg, rats
Source text: Gastric mucus plays crucial role in gastro-protection. […] The mucus was formed from mucin-type glycoprotein. The mucus gel adhering to the gastric mucosal surface defends the epithelium beneath against acid, pepsin and necrotizing agents, such as ethanol and indomethacin. […] Gastric wall mucus coating might be relieved in the repair of the damaged gastric epithelium. […] The rats were grouped into five groups (n=6). Group I and II received saline solution and served as negative-control and ulcer-control, respectively. […] The animals were sacrificed 1 hour later under anesthesia and their stomachs were quickly removed for further studies. Periodic acid-Schiff (PAS) staining was used to observe the glycogen level in control and pretreated animals. […] Ethanol-induced gastric ulcers result from several mechanisms, including reduction of gastric mucus and impaired mucosal permeability, and leads to increased leakage of hydrogen ions from the lumen and decreased transluminal membrane potential difference. With regard to the gross gastric lesion evaluation, the stomach of each rat was opened along the greater arc and washed with saline water to remove gastric contents. Gastric ulcers appear as elongated bands on the gastric mucosa with hemorrhagic lesions being parallel to the long axis of the stomach. The mucosa was assessed for damage under dissecting microscope (1.8×) and a planimeter was used to measure the ulcers area (hemorrhagic lesions). The length and width of each lesion were measured and the sum of the area of all lesions for each stomach was expressed as the ulcer area (mm^2). To determine mucus production of the gastric mucosa, the gastric mucosa of each rat was gently scraped using a glass slide and the mucus obtained was weighed using a precision electronic balance. For the histologic studies, gastric tissues were collected and fixed in 10% formalin after sacrifice. Then, each sample was embedded in paraffin and cut into 5 μm thick slices for morphological and pathological evaluation. Tissue sections were stained with hematoxylin and eosin (H & E) and examined under a light microscope.

COX-1 = assay: Western blot of COX-1 expression in rat gastric mucosa damaged by ethanol; type: in vivo; settings: ethanol induced model, S3 25.6 mg/kg, indomethacin 25 mg/kg
[6] = pretreated rats, ethanol induced ulcer

SMILES: COc1cc(OC)c(/C=N/NC(=O)Cc2c(C)[nH]c3ccc(OC)cc23)c(OC)c1 [Compound S17, 2-(5-methoxy-2-methyl-1H-indol-3-yl)-N′-[(E)-(2,4,6-trimethoxyphenyl)methylidene]acetohydrazide]
analgesic activity (percentage change in reaction time) [1]: 61.53% | melting point: 230 to 232 °C

SMILES: COc1ccc2[nH]c(C)c(CC(=O)N/N=C/c3cc(OC)c(OC)cc3OC)c2c1 [Compound S14, 2-(5-methoxy-2-methyl-1H-indol-3-yl)-N′-[(E)-(2,4,5-trimethoxyphenyl)methylidene]acetohydrazide]
analgesic activity (percentage change in reaction time) [1]: 70.27% | ulcerogenic activity (in words) (gastric mucosa): less ulcerogenic than the reference drug indomethacin | anti-inflammatory activity (in words) [2]: most potent compounds with significant anti-inflammatory activity | melting point: 238 to 240 °C

SMILES: COc1ccc2[nH]c(C)c(CC(=O)N/N=C/c3cccc([N+](=O)[O-])c3)c2c1 [Compound S3, 2-(5-methoxy-2-methyl-1H-indol-3-yl)-N′-[(E)-(3-nitrophenyl)methylidene] acetohydrazide]
LD50 at 24 h [3]: 35 mg/kg | COX-2 expression / inhibition by Western blot (in words) (COX-2): potent COX-2 inhibition | lipid peroxidation (in words) [4]: maximum reduction in gastric ulceration and lipid peroxidation | analgesic activity (percentage change in reaction time) [1]: 61.36% | ulcerogenic activity (in words) (gastric mucosa): less ulcerogenic than the reference drug indomethacin | histology of gastric tissue (in words) ([5]; ethanol induced ulcer): normal glandular pattern with mild inflammation and infiltration of leucocytes | PAS staining of gastric mucosa (in words) [5, 6]: substantially continuous PAS-positive mucous gel layer | mucus production by gastric mucosa (in words) [5, 6]: increased gradually | Ulcer index Mean ± SEM [5]: 2.83±0.87 mm^2 | anti-inflammatory activity (in words) [2]: most potent compounds with significant anti-inflammatory activity | COX-1 expression / inhibition by Western blot (in words) (COX-1): weak COX-1 expression

SMILES: COc1ccc2c(c1)c(CC(=O)O)c(C)n2C(=O)c1ccc(Cl)cc1 [indomethacin, reference compound]
histology of gastric tissue (in words) ([5]; ethanol induced ulcer): severe ulceration in comparison with the ethanol induced ulceration | PAS staining of gastric mucosa (in words) [5, 6]: did not exhibit this magenta staining color of PAS | Ulcer index Mean ± SEM [5]: 12.34±0.73 mm^2 | Ulcer index Mean ± SEM ([5]; listed as Indomethacin): 12.34 ± 0.73 mm^2 | anti-inflammatory activity, % inhibition of paw edema ([2]; after 2 hours): 77.23% | anti-inflammatory activity, % inhibition of paw edema ([2]; after 4 hours): 76.89% | COX-1 expression / inhibition by Western blot (in words) (COX-1): potent COX-1 inhibitor

SMILES: COc1ccc2[nH]c(C)c(CC(=O)N/N=C/c3cc(OC)c(OC)c(OC)c3)c2c1 [Compound S16, 2-(5-methoxy-2-methyl-1H-indol-3-yl)-N′-[(E)-(3,4,5-trimethoxyphenyl)methylidene]acetohydrazide]
melting point: 233 to 235 °C

SMILES: COc1ccc2[nH]c(C)c(CC(=O)N/N=C/c3ccc(Cl)cc3Cl)c2c1 [Compound S6, N′-[(E)-(2,4-dichlorophenyl)methylidene]-2-(5-methoxy-2-methyl-1H-indol-3-yl)acetohydrazide]
melting point: 238 to 240 °C

SMILES: COc1ccc2[nH]c(C)c(CC(=O)N/N=C/c3ccc(O)cc3)c2c1 [Compound S9, N-[(E)-(4-hydroxyphenyl)methylidene]-2-(5-methoxy-2-methyl-1H-indol-3-yl)acetohydrazide]
analgesic activity (percentage change in reaction time) [1]: 55.81%

SMILES: COc1ccc2[nH]c(C)c(CC(=O)N/N=C/c3ccc(OC)c(OC)c3OC)c2c1 [Compound S15, 2-(5-methoxy-2-methyl-1H-indol-3-yl)-N′-[(E)-(2,3,4-trimethoxyphenyl)methylidene]acetohydrazide]
melting point: 250 to 252 °C

More lines, main results first:

melting point: 145 to 147 °C
SMILES: COc1ccc2[nH]c(C)c(CC(=O)N/N=C/c3cccc(O)c3)c2c1 [Compound S10, N′-[(E)-(3-hydroxyphenyl)methylidene]-2-(5-methoxy-2-methyl-1H-indol-3-yl)acetohydrazide]
analgesic activity (percentage change in reaction time) [1]: 62.50%

melting point: 210 to 212 °C
SMILES: COc1ccc2[nH]c(C)c(CC(=O)N/N=C/c3ccc(OC)c(OC)c3)c2c1 [Compound S7, 2-(5-methoxy-2-methyl-1H-indol-3-yl)-N′-[(E)-(3,4-dimethoxyphenyl)methylidene] acetohydrazide]
analgesic activity (percentage change in reaction time) [1]: 47.72% | ulcerogenic activity (in words) (gastric mucosa): less ulcerogenic than the reference drug indomethacin | anti-inflammatory activity (in words) [2]: most potent compounds with significant anti-inflammatory activity

melting point: 220 to 222 °C
SMILES: COc1ccc2[nH]c(C)c(CC(=O)N/N=C/c3ccccc3OC)c2c1 [Compound S8, 2-(5-methoxy-2-methyl-1H-indol-3-yl)-N′-[(E)-(2-methoxyphenyl)methylidene] acetohydrazide]

melting point: 200 to 202 °C
SMILES: COc1ccc2[nH]c(C)c(CC(=O)N/N=C/c3ccc(N(C)C)cc3)c2c1 [Compound S11, 2-(5-methoxy-2-methyl-1H-indol-3-yl)-N′-{(E)-[4-(dimethylamino)phenyl]methylidene}acetohydrazide]

melting point: 180 to 182 °C
SMILES: COc1ccc2[nH]c(C)c(CC(=O)N/N=C/c3ccc(Cl)cc3)c2c1 [Compound S5, N′-[(E)-(4-chlorophenyl)methylidene]-2-(5-methoxy-2-methyl-1H-indol-3-yl)acetohydrazide]

melting point: 195 to 197 °C
SMILES: COc1cccc(/C=N/NC(=O)Cc2c(C)[nH]c3ccc(OC)cc23)c1 [Compound S12, 2-(5-methoxy-2-methyl-1H-indol-3-yl)-N′-[(E)-(3-methoxyphenyl)methylidene] acetohydrazide]

melting point: 213 to 215 °C
SMILES: CCOc1ccc(/C=N/NC(=O)Cc2c(C)[nH]c3ccc(OC)cc23)cc1 [Compound S13, N′-[(E)-(4-ethoxyphenyl)methylidene]-2-(5-methoxy-2-methyl-1H-indol-3-yl)acetohydrazide]

melting point: 170 to 172 °C
SMILES: COc1ccc(/C=N/NC(=O)Cc2c(C)[nH]c3ccc(OC)cc23)c(OC)c1 [Compound S18, 2-(5-methoxy-2-methyl-1H-indol-3-yl)-N′-[(E)-(2,4-dimethoxyphenyl)methylidene]acetohydrazide]

melting point: 210 to 212 °C
SMILES: COc1ccc2[nH]c(C)c(CC(=O)N/N=C/c3ccccc3[N+](=O)[O-])c2c1 [Compound S4, 2-(5-methoxy-2-methyl-1H-indol-3-yl)-N′-[(E)-(2-nitrophenyl)methylidene] acetohydrazide]

Reference: patent US9808443B1, “Cyclooxygenase inhibitors” (KING SAUD UNIVERSITY, priority 2016, dated 2017)
